Reference: US12077503B2, “Substituted cyclic amides and their use as herbicides” (FMC CORPORATION, priority 2015, dated 2024)

Experiments:
Assay type in all cases: in vivo
Kochia (Kochia scoparia) [1] = assay: Test A postemergence; conditions: Bassia scoparia, post-emergence, 240 h, Postemergence; for pest or weed control at 125 g/ha: 125 g ai/ha, visual rating about 10 d after treatment, read-out: Kochia plant response rating (0 to 100 scale); for pest or weed control at 500 g/ha: 500 g ai/ha, visual injury, 0 to 100 scale (0 no effect, 100 complete control), approx. 10 d, read-out: Plant response rating, Kochia
Summary of the method: (§1)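 Preemergence directed soil spray on seeded pots, or postemergence application to plants 2–10 cm, one- to two-leaf. Solvent mixture non-phytotoxic, with surfactant. Scored ~10 d later, visually, 0–100 vs untreated.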

[2] = system: giant foxtail (Setaria faberii); assay: Test A postemergence; conditions: Setaria faberi, post-emergence, 240 h, Postemergence; for pest or weed control at 125 g/ha: 125 g ai/ha, visual rating about 10 d after treatment, read-out: Foxtail, Giant plant response rating (0 to 100 scale); for pest or weed control at 500 g/ha: 500 g ai/ha, visual injury, 0 to 100 scale (0 no effect, 100 complete control), approx. 10 d, read-out: Plant response rating, Foxtail, Giant
Summary of the method: as §1

[3] = system: ryegrass, Italian (Italian ryegrass, Lolium multiflorum); assay: Test A postemergence; conditions: Lolium multiflorum, post-emergence, 240 h, Postemergence; for pest or weed control at 125 g/ha: 125 g ai/ha, visual rating about 10 d after treatment, read-out: Ryegrass, Italian plant response rating (0 to 100 scale); for pest or weed control at 500 g/ha: 500 g ai/ha, visual injury, 0 to 100 scale (0 no effect, 100 complete control), approx. 10 d, read-out: Plant response rating, Ryegrass, Italian
Summary of the method: as §1

[4] = system: blackgrass (Alopecurus myosuroides); assay: Test A postemergence; conditions: Alopecurus myosuroides, post-emergence, 240 h, Postemergence; for pest or weed control at 125 g/ha: 125 g ai/ha, visual rating about 10 d after treatment, read-out: Blackgrass plant response rating (0 to 100 scale); for pest or weed control at 500 g/ha: 500 g ai/ha, visual injury, 0 to 100 scale (0 no effect, 100 complete control), approx. 10 d, read-out: Plant response rating, Blackgrass
Summary of the method: as §1

[5] = system: ragweed (common ragweed, Ambrosia elatior); assay: Test A preemergence; conditions: Ambrosia artemisiifolia, pre-emergence, 240 h, 0 to 100 scale (0 no effect, 100 complete control), read-out: Plant response rating, Ragweed; for pest or weed control at 500 g/ha: 500 g ai/ha, preemergence; for pest or weed control at 125 g/ha: Preemergence, 125 g ai/ha
Summary of the method: as §1

Kochia (Kochia scoparia) [6] = assay: Test A preemergence; conditions: Bassia scoparia, pre-emergence, 240 h, 0 to 100 scale (0 no effect, 100 complete control), read-out: Plant response rating, Kochia; for pest or weed control at 500 g/ha: 500 g ai/ha, preemergence; for pest or weed control at 125 g/ha: Preemergence, 125 g ai/ha
Summary of the method: as §1

[7] = system: giant foxtail (Setaria faberii); assay: Test A preemergence; conditions: Setaria faberi, pre-emergence, 240 h, 0 to 100 scale (0 no effect, 100 complete control), read-out: Plant response rating, Foxtail, Giant; for pest or weed control at 500 g/ha: 500 g ai/ha, preemergence; for pest or weed control at 125 g/ha: Preemergence, 125 g ai/ha
Summary of the method: as §1

[8] = system: pigweed (Amaranthus retroflexus); assay: Test A preemergence; conditions: Amaranthus retroflexus, pre-emergence, 240 h, 0 to 100 scale (0 no effect, 100 complete control), read-out: Plant response rating, Pigweed; for pest or weed control at 500 g/ha: 500 g ai/ha, preemergence; for pest or weed control at 125 g/ha: Preemergence, 125 g ai/ha
[9] = system: barnyardgrass (Echinochloa crus-galli); assay: Test A preemergence; conditions: Echinochloa crus-galli, pre-emergence, 240 h, 0 to 100 scale (0 no effect, 100 complete control), read-out: Plant response rating, Barnyardgrass; for pest or weed control at 500 g/ha: 500 g ai/ha, preemergence; for pest or weed control at 125 g/ha: Preemergence, 125 g ai/ha
Summary of the method: as §1

[10] = system: ryegrass, Italian (Italian ryegrass, Lolium multiflorum); assay: Test A preemergence; conditions: Lolium multiflorum, pre-emergence, 240 h, 0 to 100 scale (0 no effect, 100 complete control), read-out: Plant response rating, Ryegrass, Italian; for pest or weed control at 500 g/ha: 500 g ai/ha, preemergence; for pest or weed control at 125 g/ha: Preemergence, 125 g ai/ha
Summary of the method: as §1

rice (Oryra sativa) = assay: Test B flooded paddy test; conditions: Oryza sativa, 360 h, Flood, 250 g ai/ha; visually evaluated after 13 to 15 d; read-out: Plant response rating, Rice (0 to 100 scale where 0 is no effect and 100 is complete control)
Summary of the method: (§2)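 Plants at 2-leaf stage flooded to 3 cm above soil, with compounds applied directly to paddy water and that depth maintained. Plants kept in greenhouse 13–15 d. Visual rating versus controls on a 0 (no effect) to 100 (complete control) scale.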

[11] = system: barnyardgrass (Echinochloa crus-galli); assay: Test B flooded paddy test; conditions: Echinochloa crus-galli, 360 h, Flood, 250 g ai/ha; visually evaluated after 13 to 15 d; read-out: Plant response rating, Barnyardgrass (0 to 100 scale where 0 is no effect and 100 is complete control)
Summary of the method: as §2

[12] = system: sedge, umbrella (small-flower umbrella sedge, Cyperus difformis); assay: Test B flooded paddy test; conditions: Cyperus difformis, 360 h, Flood, 250 g ai/ha; visually evaluated after 13 to 15 d; read-out: Plant response rating, Sedge, Umbrella (0 to 100 scale where 0 is no effect and 100 is complete control)
Summary of the method: as §2

[13] = system: ducksalad (Heteranthera limosa); assay: Test B flooded paddy test; conditions: Heteranthera limosa, 360 h, Flood, 250 g ai/ha; visually evaluated after 13 to 15 d; read-out: Plant response rating, Ducksalad (0 to 100 scale where 0 is no effect and 100 is complete control)
Summary of the method: as §2

Row | Structure (SMILES) | pest or weed control at 125 g/ha (Kochia (Kochia scoparia) [1]) [%] | pest or weed control at 500 g/ha (Kochia (Kochia scoparia) [1]) [%] | pest or weed control at 125 g/ha [2] [%] | pest or weed control at 500 g/ha [2] [%] | pest or weed control at 125 g/ha [3] [%] | pest or weed control at 500 g/ha [3] [%] | pest or weed control at 125 g/ha [4] [%] | pest or weed control at 500 g/ha [4] [%] | pest or weed control at 500 g/ha [5] [%] | pest or weed control at 125 g/ha [5] [%] | pest or weed control at 500 g/ha (Kochia (Kochia scoparia) [6]) [%] | pest or weed control at 125 g/ha (Kochia (Kochia scoparia) [6]) [%] | pest or weed control at 500 g/ha [7] [%] | pest or weed control at 125 g/ha [7] [%] | pest or weed control at 500 g/ha [8] [%] | pest or weed control at 125 g/ha [8] [%] | pest or weed control at 500 g/ha [9] [%] | pest or weed control at 125 g/ha [9] [%] | pest or weed control at 500 g/ha [10] [%] | pest or weed control at 125 g/ha [10] [%] | further results
1 | C=CCOc1cccc(C2CN(C)C(=O)C2C(=O)Nc2ccccc2F)c1 (stereo not drawn) [Compound 1329] | 40 | 50 | 90 | 90 | 0 | 50 | 20 | 60 | 20 | 0 | 50 | 50 | 90 | 90 | 30 | 0 | 100 | 90 | 40 | 0 | pest or weed control at 250 g/ha (rice (Oryra sativa)): 0%; pest or weed control at 250 g/ha [11]: 60%; pest or weed control at 250 g/ha [12]: 0%; pest or weed control at 250 g/ha [13]: 70%
2 | CN1CC[C@H](c2cccc(C(F)(F)F)c2)[C@@H](C(=O)Nc2cccc(F)c2F)C1=O [Compound 1330] | 0 | 20 | 90 | 90 | 0 | 20 | 50 | 70 | 50 | 0 | 90 | 20 | 90 | 90 | 0 | 0 | 90 | 90 | 50 | 50 | pest or weed control at 250 g/ha (rice (Oryra sativa)): 0%; pest or weed control at 250 g/ha [11]: 85%; pest or weed control at 250 g/ha [12]: 0%; pest or weed control at 250 g/ha [13]: 90%
3 | CN1CC[C@H](c2cccc(C(F)(F)F)c2)[C@@H](C(=O)Nc2ccccc2F)C1=O [Compound 1331] | 0 | 0 | 90 | 90 | 0 | 0 | 20 | 50 | 0 | 0 | 0 | 0 | 100 | 90 | 0 | 0 | 90 | 90 | 80 | 20 | pest or weed control at 250 g/ha (rice (Oryra sativa)): 0%; pest or weed control at 250 g/ha [11]: 70%; pest or weed control at 250 g/ha [12]: 0%; pest or weed control at 250 g/ha [13]: 20%
4 | CN1C[C@H](c2ccc(C(F)(F)F)nc2)[C@@H](C(=O)Nc2cccc(F)c2F)C1=O [Compound 1372] | 70 | 80 | 90 | 90 | 20 | 30 | 50 | 70 | 90 | 90 | 90 | 90 | 100 | 90 | 90 | 90 | 100 | 90 | 60 | 60 | pest or weed control at 250 g/ha (rice (Oryra sativa)): 40%; pest or weed control at 250 g/ha [11]: 80%; pest or weed control at 250 g/ha [12]: 0%; pest or weed control at 250 g/ha [13]: 85%
5 | CN1C[C@H](c2cc(C(F)(F)F)cs2)[C@@H](C(=O)Nc2cccc(F)c2F)C1=O [Compound 1377] | 50 | 70 | 80 | 80 | 30 | 60 | 20 | 60 | 30 | 0 | 80 | 70 | 100 | 100 | 40 | 20 | 100 | 80 | 50 | 20 | pest or weed control at 250 g/ha (rice (Oryra sativa)): 15%; pest or weed control at 250 g/ha [11]: 60%; pest or weed control at 250 g/ha [12]: 0%; pest or weed control at 250 g/ha [13]: 90%
